This note sets out measurements from the supplement of paper PMC10307832.

Common to all, as to experiment: relative viability (nuclei count vs DMSO), 5 days (fraction); higher = more cells survive
Compound in the assay “Alisertib + Linsitinib”: COc1cc(Nc2ncc3c(n2)-c2ccc(Cl)cc2C(c2c(F)cccc2OC)=NC3)ccc1C(=O)O [Alisertib] + C[C@]1(O)C[C@@H](c2nc(-c3ccc4ccc(-c5ccccc5)nc4c3)c3c(N)nccn32)C1 [Linsitinib] (partner 1 µM)
The gist of the method: (§1)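 Relative viability equals treated-well nuclei counts divided by vehicle-well nuclei counts. Counts came from 4× images of lung cancer cell lines grown in 1536-well plates for 5 days after pin-tool dosing on the day after seeding. Dosing used one drug alone or a fixed anchor-drug dose plus five library-drug doses (not always all listed) in √10 steps, and values are medians of duplicate plates.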

Compound in the assay “Alisertib + Crizotinib”: COc1cc(Nc2ncc3c(n2)-c2ccc(Cl)cc2C(c2c(F)cccc2OC)=NC3)ccc1C(=O)O [Alisertib] + C[C@@H](Oc1cc(-c2cnn(C3CCNCC3)c2)cnc1N)c1c(Cl)ccc(F)c1Cl [Crizotinib] (partner 1 µM)
The gist of the method:
as §1

Compound in the assay “Alisertib + Tozasertib”: COc1cc(Nc2ncc3c(n2)-c2ccc(Cl)cc2C(c2c(F)cccc2OC)=NC3)ccc1C(=O)O [Alisertib] + Cc1cc(Nc2cc(N3CCN(C)CC3)nc(Sc3ccc(NC(=O)C4CC4)cc3)n2)n[nH]1 [Tozasertib] (partner 0.1 µM)
The procedure, abridged:
as §1

Compound in the assay “Alisertib + OSI-027”: COc1cc(Nc2ncc3c(n2)-c2ccc(Cl)cc2C(c2c(F)cccc2OC)=NC3)ccc1C(=O)O [Alisertib] + COc1cccc2cc(-c3nc([C@H]4CC[C@H](C(=O)O)CC4)n4ncnc(N)c34)[nH]c12 [OSI-027] (partner 0.5 µM)
The gist of the method:
as §1

NCI-H727: the relative viability turned out to be 0.415 with Alisertib + Linsitinib (first compound 0.005 µM); 0.366 with Alisertib + Linsitinib (first compound 0.01581 µM); 0.216 in the assay with Alisertib + Linsitinib (first compound 0.05 µM); 0.242 in the assay with Alisertib + Linsitinib (first compound 0.1581 µM); 0.194 in the assay with Alisertib + Linsitinib (first compound 0.5 µM); 0.691 with Alisertib + Crizotinib (first compound 0.005 µM). The relative viability with Alisertib + Crizotinib (first compound 0.01581 µM) is 0.675; in the assay with Alisertib + Crizotinib (first compound 0.05 µM), 0.361; with Alisertib + Crizotinib (first compound 0.1581 µM) it was 0.315; in the assay with Alisertib + Crizotinib (first compound 0.5 µM), 0.267; with Alisertib + Tozasertib (first compound 0.005 µM) it was 0.411; in the assay with Alisertib + Tozasertib (first compound 0.01581 µM), 0.598. The relative viability in the assay with Alisertib + Tozasertib (first compound 0.05 µM) came out at 0.486; in the assay with Alisertib + Tozasertib (first compound 0.1581 µM), 0.494; in the assay with Alisertib + Tozasertib (first compound 0.5 µM) it was 0.404; with Alisertib + OSI-027 (first compound 0.005 µM) it was 0.573; in the assay with Alisertib + OSI-027 (first compound 0.01581 µM) it was 0.466; with Alisertib + OSI-027 (first compound 0.05 µM), 0.421. Further, the relative viability was 0.482 in the assay with Alisertib + OSI-027 (first compound 0.1581 µM) and 0.374 with Alisertib + OSI-027 (first compound 0.5 µM).
As for NCI-H661, the relative viability in the assay with Alisertib + Linsitinib (first compound 0.005 µM) was found to be 0.635; in the assay with Alisertib + Linsitinib (first compound 0.01581 µM), 0.389; in the assay with Alisertib + Linsitinib (first compound 0.05 µM), 0.304; in the assay with Alisertib + Linsitinib (first compound 0.1581 µM) it was 0.323; with Alisertib + Linsitinib (first compound 0.5 µM), 0.282; with Alisertib + Crizotinib (first compound 0.005 µM) it was 1.05. The relative viability is 1.02 with Alisertib + Crizotinib (first compound 0.01581 µM); 0.48 in the assay with Alisertib + Crizotinib (first compound 0.05 µM); 0.392 with Alisertib + Crizotinib (first compound 0.1581 µM); 0.504 in the assay with Alisertib + Crizotinib (first compound 0.5 µM); 0.342 with Alisertib + Tozasertib (first compound 0.005 µM); 0.377 in the assay with Alisertib + Tozasertib (first compound 0.01581 µM). The relative viability with Alisertib + Tozasertib (first compound 0.05 µM) was found to be 0.386; in the assay with Alisertib + Tozasertib (first compound 0.1581 µM) it was 0.406; in the assay with Alisertib + Tozasertib (first compound 0.5 µM) it was 0.39; in the assay with Alisertib + OSI-027 (first compound 0.005 µM), 0.667; in the assay with Alisertib + OSI-027 (first compound 0.01581 µM), 0.557; with Alisertib + OSI-027 (first compound 0.05 µM), 0.438. Further, the relative viability turned out to be 0.282 with Alisertib + OSI-027 (first compound 0.1581 µM) and 0.285 in the assay with Alisertib + OSI-027 (first compound 0.5 µM).
For NCI-H650, the relative viability with Alisertib + Linsitinib (first compound 0.005 µM) was 0.614; with Alisertib + Linsitinib (first compound 0.01581 µM) it was 0.727; with Alisertib + Linsitinib (first compound 0.05 µM) it was 0.437; in the assay with Alisertib + Linsitinib (first compound 0.1581 µM), 0.217; with Alisertib + Linsitinib (first compound 0.5 µM), 0.188; with Alisertib + Crizotinib (first compound 0.005 µM), 0.773. Further, the relative viability with Alisertib + Crizotinib (first compound 0.01581 µM) amounted to 0.55; with Alisertib + Crizotinib (first compound 0.05 µM) it was 0.28; with Alisertib + Crizotinib (first compound 0.1581 µM), 0.239; with Alisertib + Crizotinib (first compound 0.5 µM), 0.23; with Alisertib + Tozasertib (first compound 0.005 µM) it was 0.653; with Alisertib + Tozasertib (first compound 0.01581 µM), 0.481. Moreover, the relative viability came to 0.253 in the assay with Alisertib + Tozasertib (first compound 0.05 µM); 0.185 in the assay with Alisertib + Tozasertib (first compound 0.1581 µM); 0.165 with Alisertib + Tozasertib (first compound 0.5 µM); 0.396 with Alisertib + OSI-027 (first compound 0.005 µM); 0.459 with Alisertib + OSI-027 (first compound 0.01581 µM); 0.239 with Alisertib + OSI-027 (first compound 0.05 µM). In addition, the relative viability was determined as 0.203 in the assay with Alisertib + OSI-027 (first compound 0.1581 µM) and 0.159 with Alisertib + OSI-027 (first compound 0.5 µM).
Regarding NCI-H1650, the relative viability in the assay with Alisertib + Crizotinib (first compound 0.005 µM) came out at 0.975; with Alisertib + Crizotinib (first compound 0.01581 µM), 0.71; in the assay with Alisertib + Crizotinib (first compound 0.05 µM), 0.359; with Alisertib + Crizotinib (first compound 0.1581 µM), 0.255; with Alisertib + Crizotinib (first compound 0.5 µM), 0.276; with Alisertib + Tozasertib (first compound 0.005 µM), 0.46. Moreover, the relative viability is 0.394 with Alisertib + Tozasertib (first compound 0.01581 µM); 0.2 with Alisertib + Tozasertib (first compound 0.05 µM); 0.246 in the assay with Alisertib + Tozasertib (first compound 0.1581 µM); 0.202 with Alisertib + Tozasertib (first compound 0.5 µM); 0.565 with Alisertib + OSI-027 (first compound 0.005 µM); 0.501 with Alisertib + OSI-027 (first compound 0.01581 µM). Besides, the results for the relative viability with Alisertib + OSI-027 (first compound 0.05 µM), with Alisertib + OSI-027 (first compound 0.1581 µM) and with Alisertib + OSI-027 (first compound 0.5 µM) were 0.278, 0.108 and 0.166, respectively.
For NCI-H2170, the relative viability turned out to be 1.17 in the assay with Alisertib + Crizotinib (first compound 0.005 µM); 1.03 with Alisertib + Crizotinib (first compound 0.01581 µM); 0.438 with Alisertib + Crizotinib (first compound 0.05 µM); 0.325 with Alisertib + Crizotinib (first compound 0.1581 µM); 0.225 with Alisertib + Crizotinib (first compound 0.5 µM); 0.658 with Alisertib + Tozasertib (first compound 0.005 µM). Further, the relative viability was 0.674 in the assay with Alisertib + Tozasertib (first compound 0.01581 µM); 0.321 with Alisertib + Tozasertib (first compound 0.05 µM); 0.261 with Alisertib + Tozasertib (first compound 0.1581 µM); 0.161 in the assay with Alisertib + Tozasertib (first compound 0.5 µM); 0.721 in the assay with Alisertib + OSI-027 (first compound 0.005 µM); 0.629 with Alisertib + OSI-027 (first compound 0.01581 µM). Besides, the relative viability with Alisertib + OSI-027 (first compound 0.05 µM) is 0.644; with Alisertib + OSI-027 (first compound 0.1581 µM), 0.323; with Alisertib + OSI-027 (first compound 0.5 µM) it was 0.201.
For NCI-H1563, the relative viability with Alisertib + Linsitinib (first compound 0.005 µM) worked out at 1.04; with Alisertib + Linsitinib (first compound 0.01581 µM), 1.01; with Alisertib + Linsitinib (first compound 0.05 µM) it was 1.01; with Alisertib + Linsitinib (first compound 0.1581 µM) it was 0.935; with Alisertib + Linsitinib (first compound 0.5 µM), 0.744; with Alisertib + Crizotinib (first compound 0.005 µM) it was 0.741. Moreover, the relative viability with Alisertib + Crizotinib (first compound 0.01581 µM) is 0.911; with Alisertib + Crizotinib (first compound 0.05 µM) it was 0.788; with Alisertib + Crizotinib (first compound 0.1581 µM), 0.809; in the assay with Alisertib + Crizotinib (first compound 0.5 µM), 0.601; with Alisertib + OSI-027 (first compound 0.005 µM), 0.742; in the assay with Alisertib + OSI-027 (first compound 0.01581 µM), 0.768. The figures for the relative viability in the assay with Alisertib + OSI-027 (first compound 0.05 µM), with Alisertib + OSI-027 (first compound 0.1581 µM) and in the assay with Alisertib + OSI-027 (first compound 0.5 µM) were 0.684, 0.695 and 0.54, respectively.
For the cell line EBC-1, the relative viability with Alisertib + Linsitinib (first compound 0.005 µM) stood at 0.678; with Alisertib + Linsitinib (first compound 0.01581 µM), 0.731; with Alisertib + Linsitinib (first compound 0.05 µM) it was 0.211; with Alisertib + Linsitinib (first compound 0.1581 µM), 0.179; with Alisertib + Linsitinib (first compound 0.5 µM) it was 0.147; with Alisertib + Crizotinib (first compound 0.005 µM), 0.177. Further, the relative viability with Alisertib + Crizotinib (first compound 0.01581 µM) stood at 0.189; with Alisertib + Crizotinib (first compound 0.05 µM), 0.174; with Alisertib + Crizotinib (first compound 0.1581 µM), 0.139; with Alisertib + Crizotinib (first compound 0.5 µM) it was 0.155.
As for Calu-6, the relative viability in the assay with Alisertib + Linsitinib (first compound 0.005 µM) is 0.733; in the assay with Alisertib + Linsitinib (first compound 0.01581 µM) it was 0.763; with Alisertib + Linsitinib (first compound 0.05 µM), 0.295; with Alisertib + Linsitinib (first compound 0.1581 µM), 0.129; with Alisertib + Linsitinib (first compound 0.5 µM), 0.162; in the assay with Alisertib + Crizotinib (first compound 0.005 µM), 0.697. Further, the relative viability came to 0.334 with Alisertib + Crizotinib (first compound 0.01581 µM), 0.204 with Alisertib + Crizotinib (first compound 0.05 µM), 0.227 with Alisertib + Crizotinib (first compound 0.1581 µM) and 0.198 in the assay with Alisertib + Crizotinib (first compound 0.5 µM).
